The values below come from US6153592A, “Enhancing the bioavailability of proteolytically labile therapeutic agents” (Port Systems, LLC, priority 1994, dated 2000).

Data set [1] concerns intestinal aminopeptidases. Put plainly: Protection against degradation by aminopeptidase in vivo: YdAGFdL bioavailability after ileal dosing. The arrangement: species or system rats. As to the method: The pentapeptide enkephalin analogue D-AJa-D-Leu-enkephalin (YdAGFdL) (1.0 mg) was directly ileally dosed to chronically ileally fistulated rats. Radiolabeled YdAGFdL (1.12 microgram) was dosed with each of four protecting agents: (1) decanted soy flour, <1K MW; (2) decanted and ultrafitered soy flour, 1K-30K MW; (3) pepsin-treated (FMC ACTI-MOD) soy flour, <30K MW; (4) the potent aminopeptidase inhibitor amastatin (positive control). Blood was collected from a jugular vein cannula at various times post-dosing, and intact YdAGFdL was quantified by a radiometric thin layer chromatography (TLC) method utilizing reverse phase KC-18 TLC plates (Whatman Co.). The TLC plates were developed with 30:701 -propanol/0.1 M phosphate buffer (pH 4.1).

The conditions of data set [2]: in vivo, cited from earlier work.

In the case of `CC(C)C[C@@H](N)[C@H](O)C(=O)N[C@H](C(=O)N[C@H](C(=O)N[C@@H](CC(=O)O)C(=O)O)C(C)C)C(C)C` [Amastatin], the “% YdAGFdL Bioavailability” value in data set [1] (protecting agent 1 mg, ileally fistulated rats) is given as 8.76 ± 4.47%. Further, in data set [1] (rats), the “protection against degradation of YdAGFdL by intestinal aminopeptidases (in words)” value is reported as “effective”.
Regarding `CCNC(=O)[C@@H]1CCCN1C(=O)[C@H](CCCNC(=N)N)NC(=O)[C@H](CC(C)C)NC(=O)[C@@H](CC(C)C)NC(=O)[C@H](Cc1ccc(O)cc1)NC(=O)[C@H](CO)NC(=O)[C@H](Cc1c[nH]c2ccccc12)NC(=O)[C@H](Cc1c[nH]cn1)NC(=O)[C@@H]1CCC(=O)N1` [leuprolide], in data set [2] (po), the “bioavailability following oral administration” value is recorded as 0.05%. For the same compound, the “bioavailability following vaginal administration” value in data set [2] is reported as 38%.
